Legend:
[1] = test system: adult acc mutant primary cardiomyocytes; experiment: acc mutant primary cardiomyocyte contractility; format: cell-based, zebrafish; conditions: for amplitude of contractility: 0.1 nM ouabain or 1 nM MK-2206 alone; for Amplitude / Contraction Rate (−dv/dt) / Relaxation Rate (+dv/dt): Acc mutant, 0.1 nM Oua, 1 nM MK, 20 minutes, 0.5 Hz
Description: (§1) Adult (4 to 12-month-old) ventricular myocytes were obtained by enzymatic dissociation (with collagenase II and IV, at 5 mg/ml, each). The zebrafish were stunned by a blow to the head and the brain was pithed. The heart was quickly removed and placed in a small Petri dish containing 10 ml isolation solution: 100 mM NaCl, 10 mM KCl, 1.2 mM KH2PO4, 4 mM MgSO4, 50 mM taurine, 20 mM glucose, and 10 mM Hepes, pH 6.9. The ventricle was cut free from the bulbus and atrium under a binocular. Ventricles from 3 fish were incubated for 45 minutes at 32° C. in a solution containing perfusion buffer (150 mM NaCl, 5.4 mM KCl, 1.5 mM MgSO4, 0.4 mM NaH2PO4, 2 mM CaCl2, 10 mM glucose, and 10 mM Hepes, pH 7.7). Collagenases II and IV (Gibco, NY, USA, 5 mg/ml each) and additional CaCl2 (2.012 mM final concentration) were added. Following Eppendorf centrifugation (1 minute, 250×g at room temperature) the precipitated cells were suspended in 1 ml perfusion buffer for 30 minutes at room temperature before use.
(§2) Cells were transferred to a chamber with a quartz base and examined using an inverted epifluorescence microscope (Nikon Diaphot 200, Japan). The myocytes were field-stimulated (0.5 Hz, 70 V, square waves) and contractions were measured using a video motion edge detector (Crescent Electronics, Sandy, Utah, USA) at the rate of 5 Hz. Cardiomyocyte performance was calculated as the percentage of resting cell length. The slopes of contraction and relaxation (+dL/dt and −dL/dt) were calculated from the linear portions of the changes in contractility. 9 cells per each group were measured. Each of the experiments was repeated at least 3 times with identical results.

[2] = format: in vivo, rat; conditions: 10 day post MI
Description: Male Wister rats (150-175 g body weight) were used. Left anterior descending artery (LAD)-ligation was performed in all animals. […] All injected solutions contained 9% DMSO. Heart contractility in-vivo was monitored using echocardiography. At the end of the treatment period, animals were sacrificed and heart and blood samples were harvested for analysis. Blood samples were also collected (from the eye) at baseline and 24 hours post myocardial infarction (MI).
Blood samples were collected from rat eye at baseline and at 24 hrs. Post LAD-ligation. The plasmas of 11 animals were tested for the indicated biomarkers of MI.

[3] = test system: primary adult zebrafish cardiomyocytes; experiment: Primary adult zebrafish cardiomyocyte contractility; format: cell-based; conditions: for Amplitude / Contraction Rate (−dv/dt) / Relaxation Rate (+dv/dt): wt, 0.1 nM Oua, 0.5 Hz
Description: as §1, §2

[4] = test system: Ca^2+ transients in wt zebrafish isolated adult heart; experiment: Ca^2+ transients in wt zebrafish isolated adult heart; conditions: for Amplitude (Maximal deflection from baseline) / Area (Area under the transient relative to baseline) / Decay slope (−Δ Fluorescence in the linear phase/sec) / Rate / Rise slope (+Δ Fluorescence in the linear phase/sec): Ouabain 200 μM, MK-2206 1 nM
Description: Spontaneous Ca^2+ transients were measured in isolated hearts from adult zebrafish. The zebrafish were stunned by a blow to the head and the hearts were removed quickly and placed in Dulbecco's Modified Eagle's Medium (DMEM) containing 10% Fetal Bovine Serum (FBS) at room temperature. A total 3-5 hearts were placed in a small Petri dish containing 100 μl Krebs-Ringer's solution (119 mM NaCl, 2.5 mM KCl, 1 mM NaH2PO4, 2.5 mM CaCl2, 1.3 mM MgCl2, 20 mM HEPES and 11 mM D-glucose) with 0.01 mM Fura-2 AM (Biotium, Inc., CA, USA) in DMEM-FBS. Following incubation for 10 min (37° C., 5% CO2), 150 μl of Krebs-Ringer's solution were added to the Petri dish which was incubated for an additional 30 minutes. The dye was removed from the solution by two incubations (10 minutes each, room temperature) in DMEM-FBS solution. Intracellular Ca^2+ transients were measured in stabilizing medium containing 1% low-melt agarose in Krebs-Ringer's solution. The hearts were kept for 30 minutes in the presence of MK-2206 (or saline) and then underwent excitation/emission cycles for 2 minutes at 340 and 380 nm with 510 nm emission using a PTI fluorimetric system (Photon Technology International, Madison, USA). Ouabain was then added and the excitation/emission cycles were monitored for 8 minutes. The Ca^2+ levels are presented as the ratio of 340/380 nm fluorescence emission.

[5] = pre-incubation 1 nM MK-2206, 0.1 nM ouabain
[6] = Akt inhibitor experiment, 1 nM MK, 20 minutes
[7] = ERK inhibitor experiment, 10 nM PD98059, 20 minutes

SMILES	amplitude of contractility [1]	Amplitude [1]	Contraction Rate (−dv/dt) [1]	Relaxation Rate (+dv/dt) [1]	CPK [2]	Trop-T [2]	Amplitude [3, 6]	Contraction Rate (−dv/dt) [3, 6]	Relaxation Rate (+dv/dt) [3, 6]	Amplitude (Maximal deflection from baseline) [4]	Area (Area under the transient relative to baseline) [4]	Decay slope (−Δ Fluorescence in the linear phase/sec) [4]	Rate [4]	Rise slope (+Δ Fluorescence in the linear phase/sec) [4]	also measured
NC1(c2ccc(-c3nc4ccn5c(=O)[nH]nc5c4cc3-c3ccccc3)cc2)CCC1 [MK-2206]	did not affect the amplitude	0.15 ± 0.02	2.61 ± 0.74	0.98 ± 0.34	363.5 ± 88.59 unit/L	0.07 ± 0.06 ng/mL	0.19 ± 0.03	0.98 ± 0.19	0.87 ± 0.20	4.8 ± 0.13	2.81 ± 0.19	4.65 ± 0.54	48 ± 4.8 wave/min	1.65 ± 0.28	contractility parameters, inhibitor by itself ([3]; 1 nM MK-2206): did not affect any of the contractility parameters; enhancement of ouabain-induced augmentation: increase in amplitude [3, 5]: 113%; enhancement of ouabain-induced augmentation: increase in contraction rise time [3, 5]: 183%; enhancement of ouabain-induced augmentation: increase in relaxation rise time [3, 5]: 169%
C[C@@H]1O[C@@H](O[C@H]2C[C@@H](O)[C@]3(CO)[C@H]4[C@H](O)C[C@]5(C)[C@@H](C6=CC(=O)OC6)CC[C@]5(O)[C@@H]4CC[C@]3(O)C2)[C@H](O)[C@H](O)[C@H]1O [ouabain, 3-(alpha-L-Rhamnopyranosyloxy)-1beta,5beta,11alpha,14,19-pentahydroxy-5beta-card-20(22)-enolide]	did not affect the amplitude	0.14 ± 0.03	2.43 ± 0.84	0.07 ± 0.05	616.6 ± 197.6 unit/L	0.24 ± 0.17 ng/mL	0.38 ± 0.05	1.84 ± 0.28	1.64 ± 0.23	6.59 ± 0.71	2.94 ± 0.44	20 ± 3.51	52 ± 6.8 wave/min	7.84 ± 2.02	increase in the contraction amplitude ([1]; ouabain in the presence of Akt inhibitor): 67%; increase in contractility ([3]; 0.1 nM ouabain): three- to fourfold; Amplitude [3, 7]: 0.53 ± 0.1; Contraction Rate (−dv/dt) [3, 7]: 3.65 ± 0.38; Relaxation Rate (+dv/dt) [3, 7]: 2.92 ± 0.37; increase in amplitude of the Ca^2+ transients ([4]; 200 μM ouabain): 27%; increase in decay slope of the Ca^2+ transients ([4]; 200 μM ouabain): 86%; increase in rise slope of the Ca^2+ transients ([4]; 200 μM ouabain): 61%

— patent US20180369264A1, “COMBINATION OF A CARDIAC STEROID AND AN AKT INHIBITOR FOR THE TREATMENT OF CARDIOVASCULAR DISEASES AND DISORDERS” (YISSUM RESEARCH DEVELOPMENT COMPANY OF THE HEBREW …, priority 2015, published 2018)
